In paper PMC11822212, “High-throughput screening identifies Aurora kinase B as a critical therapeutic target for Merkel cell carcinoma” (Nature Communications, 2025):
Where a name gives a salt, the structure may show the parent alone. Read-outs that look alike come from different tables or passages of the source.

Columns and labels:
MKL-1 cells (VP-MCC) = test: qHTS cell viability (CellTiter-Glo, 72 h; primary and follow-up small molecule screen); type: cell-based, human
[1] = system: MCC cell lines (WAGA, MKL-1, MKL-2, MCC13, MCC26, UISO); test: qHTS cell viability, all six MCC cell lines as a group (mean AUC, MCC.avg); type: cell-based, human
HACAT cells = test: qHTS cell viability (CellTiter-Glo, 72 h; primary screen), control cell line; type: cell-based, human
[2] = system: VN-MCC cell lines (MCC13, MCC26, UISO); test: qHTS cell viability, VN-MCC cell lines as a group (mean AUC, VN.MCC.avg); type: cell-based, human
[3] = system: six MCC cell lines and four control cell lines; test: qHTS cell viability, all 10 cell lines screened; type: cell-based
HEK293T cells = test: qHTS cell viability (CellTiter-Glo, 72 h; primary screen), control cell line; type: cell-based, human
MCC26 cells (VN-MCC) = test: qHTS cell viability (CellTiter-Glo, 72 h; primary and follow-up small molecule screen); type: cell-based, human
[4] = system: VP-MCC cell lines (WAGA, MKL-1, MKL-2); test: qHTS cell viability, VP-MCC cell lines as a group (mean AUC, VP.MCC.avg); type: cell-based, human
MKL-2 cells (VP-MCC) = test: qHTS cell viability (CellTiter-Glo, 72 h; primary and follow-up small molecule screen); type: cell-based, human
WAGA cells (VP-MCC) = test: as above; type: cell-based, human
[5] = system: control cell lines (HACAT, HEK293T, CRL-7250, NIH-3T3); test: qHTS cell viability, control cell lines as a group (mean AUC, Control.avg); type: cell-based
UISO cells (VN-MCC) = test: qHTS cell viability (CellTiter-Glo, 72 h; primary and follow-up small molecule screen); type: cell-based, human
NIH-3T3 cells = test: qHTS cell viability (CellTiter-Glo, 72 h; primary screen), control cell line; type: cell-based, mouse
MCC13 cells (VN-MCC) = test: qHTS cell viability (CellTiter-Glo, 72 h; primary and follow-up small molecule screen); type: cell-based, human
CRL-7250 cells = test: qHTS cell viability (CellTiter-Glo, 72 h; primary screen), control cell line; type: cell-based
[6] = NPC library, qHTS dose-response AUC, MKL1
[7] = NPC library, mean AUC of six MCC cell lines
[8] = NPC library, qHTS dose-response AUC, HACAT control
[9] = NPC library, mean AUC of VN-MCC cell lines
[10] = NPC library, therapeutic window: Control avg AUC minus VN-MCC avg AUC
[11] = NPC library, therapeutic window: Control avg AUC minus MCC avg AUC
[12] = NPC library, qHTS dose-response AUC, HEK293T control
[13] = NPC library, qHTS dose-response AUC, MCC26
[14] = NPC library, mean AUC of VP-MCC cell lines
[15] = NPC library, therapeutic window: Control avg AUC minus VP-MCC avg AUC
[16] = NPC library, qHTS dose-response AUC, MKL2
[17] = NPC library, qHTS dose-response AUC, WAGA
[18] = NPC library, mean AUC of control cell lines
[19] = NPC library, qHTS dose-response AUC, UISO
[20] = NPC library, qHTS dose-response AUC, NIH3T3 control
[21] = NPC library, qHTS dose-response AUC, MCC13
[22] = NPC library, qHTS dose-response AUC, CRL7250 control

SMILES	MKL1_AUC (MKL-1 cells (VP-MCC); [6])	MCC_Avg_AUC [1, 7]	HACAT_AUC (HACAT cells; [8])	VN-MCC_Avg_AUC [2, 9]	Control-VN-MCC [2, 10]	Control-MCC [3, 11]	HEK293T_AUC (HEK293T cells; [12])	MCC26_AUC (MCC26 cells (VN-MCC); [13])	VP-MCC_Avg_AUC [4, 14]	Control-VP-MCC [4, 15]	MKL2_AUC (MKL-2 cells (VP-MCC); [16])	WAGA_AUC (WAGA cells (VP-MCC); [17])	Control_Avg_AUC [5, 18]	UISO_AUC (UISO cells (VN-MCC); [19])	NIH3T3_AUC (NIH-3T3 cells; [20])	MCC13_AUC (MCC13 cells (VN-MCC); [21])	CRL7250_AUC (CRL-7250 cells; [22])	other results
CCCCOc1ccc(C(=O)CCN2CCCCC2)cc1 [Dyclonine hydrochloride]	424.663	443.147	461.491	475.619	-13.9648	18.5075	441.492	466.065	410.674	50.9798	401.71	405.649	461.654	466.874	489.536	493.918	454.097	
CCOC(=O)[C@H](CCc1ccccc1)N[C@@H](C)C(=O)N1CCC[C@H]1C(=O)O [Enalapril]	312.443	387.746	446.912	510.759	-33.606	89.4069	487.46	507.531	264.734	212.42	179.263	302.495	477.153	518.678	481.677	506.069	492.563	
CC(O)C(=O)O.CCOc1ccc2nc3cc(N)ccc3c(N)c2c1.O [Ethacridine lactate hydrate]																		MKL1_AUC (MKL-1 cells (VP-MCC)): 391.16; MCC_Avg_AUC [1]: 394.957; HACAT_AUC (HACAT cells): 492.059; Control-VN-MCC [2]: 9.1824; VN-MCC_Avg_AUC [2]: 428.861; Control-MCC [3]: 43.0859; HEK293T_AUC (HEK293T cells): 374.537; MCC26_AUC (MCC26 cells (VN-MCC)): 472.196; Control-VP-MCC [4]: 76.9894; VP-MCC_Avg_AUC [4]: 361.054; MKL2_AUC (MKL-2 cells (VP-MCC)): 356.151; WAGA_AUC (WAGA cells (VP-MCC)): 335.85; Control_Avg_AUC [5]: 438.043; UISO_AUC (UISO cells (VN-MCC)): 374.889; NIH3T3_AUC (NIH-3T3 cells): 456.142; MCC13_AUC (MCC13 cells (VN-MCC)): 439.497; CRL7250_AUC (CRL-7250 cells): 429.434
CCOc1ccc2nc(S(N)(=O)=O)sc2c1 [Ethoxzolamide]	398.827	428.559	484.155	445.807	28.8613	46.11	465.047	444.564	411.31	63.3587	435.522	399.58	474.669	429.085	462.958	463.773	486.514	
